Experiments:
Format in all cases: functional, cell-based
[1] = Cytotoxicity against human MDA231 cells by MTT assay; details: MDA-MB-231
MCF7 = assay: Cytotoxicity against human MCF7 cells by MTT assay
BGC-823 = assay: Cytotoxicity against human BGC823 cells by MTT assay
HeLa = assay: Cytotoxicity against human HeLa cells by MTT assay
HT-1080 = assay: Cytotoxicity against human HT1080 cells by MTT assay
HepG2 = assay: Cytotoxicity against human HepG2 cells by MTT assay
A549 = assay: Cytotoxicity against human A549 cells by MTT assay
[2] = Cytotoxicity against human A375-S2 cells by MTT assay
HEp-2 = assay: Cytotoxicity against human Hep2 cells by MTT assay
PC-3 = assay: Cytotoxicity against human PC3 cells by MTT assay

C/C=C(/C)C(=O)O[C@@H]1[C@@H](O)[C@H](O[C@H]2[C@H](OC(C)=O)[C@]3(CO)[C@H](O)C[C@]4(C)C(=CC[C@@H]5[C@@]6(C)CC[C@H](O[C@@H]7O[C@H](C(=O)O)[C@@H](O)[C@H](O)[C@H]7O[C@@H]7O[C@H](CO)[C@@H](O)[C@H](O)[C@H]7O)[C@](C)(CO)[C@@H]6CC[C@]54C)[C@@H]3CC2(C)C)O[C@H](C)[C@@H]1OC(C)=O [BUNKANKASAPONIN A]
IC50 [1]: 12.2 µM
IC50 (MCF7): 12.7 µM
IC50 (BGC-823): 17.5 µM
IC50 (HeLa): 22.2 µM
IC50 (HT-1080): 16.3 µM
IC50 (HepG2): 22.2 µM
IC50 (A549): 41 µM
IC50 [2]: 18.1 µM
IC50 (HEp-2): 17.6 µM
IC50 (PC-3): 13.1 µM

C/C=C(/C)C(=O)O[C@@H]1[C@@H](O)[C@H](O[C@H]2[C@H](OC(C)=O)[C@]3(CO)[C@H](O)C[C@]4(C)C(=CC[C@@H]5[C@@]6(C)CC[C@H](O[C@@H]7O[C@H](C(=O)O)[C@@H](O)[C@H](O)[C@H]7O[C@@H]7O[C@H](CO)[C@@H](O)[C@H](O)[C@H]7O)[C@](C)(CO)[C@@H]6CC[C@]54C)[C@@H]3CC2(C)C)O[C@H](C)[C@@H]1OC(=O)/C(C)=C\C [BUNKANKASAPONIN B]
IC50 [1]: 2.22 µM
IC50 (MCF7): 2.46 µM
IC50 (BGC-823): 2.5 µM
IC50 (HeLa): 4.03 µM
IC50 (HT-1080): 1.14 µM
IC50 (HepG2): 4.03 µM
IC50 (A549): 3.03 µM
IC50 [2]: 4.14 µM
IC50 (HEp-2): 4.72 µM
IC50 (PC-3): 2.58 µM

C/C=C(/C)C(=O)O[C@@H]1[C@@H](O)[C@H](O[C@H]2[C@H](O)[C@]3(COC(C)=O)[C@H](O)C[C@]4(C)C(=CC[C@@H]5[C@@]6(C)CC[C@H](O[C@@H]7O[C@H](C(=O)O)[C@@H](O)[C@H](O)[C@H]7O[C@@H]7O[C@H](CO)[C@@H](O)[C@H](O)[C@H]7O)[C@](C)(CO)[C@@H]6CC[C@]54C)[C@@H]3CC2(C)C)O[C@H](C)[C@@H]1OC(C)=O [BUNKANKASAPONIN C]
IC50 [1]: 45.1 µM
IC50 (MCF7): 91.4 µM
IC50 (BGC-823): 82.6 µM
IC50 (HeLa): > 100 µM
IC50 (HT-1080): > 100 µM
IC50 (HepG2): 60.8 µM
IC50 (A549): 76.8 µM
IC50 [2]: 23.3 µM
IC50 (HEp-2): > 100 µM
IC50 (PC-3): 92.5 µM

C/C=C(/C)C(=O)O[C@@H]1[C@@H](O)[C@H](O[C@H]2[C@H](O)[C@]3(COC(C)=O)[C@H](O)C[C@]4(C)C(=CC[C@@H]5[C@@]6(C)CC[C@H](O[C@@H]7O[C@H](C(=O)O)[C@@H](O)[C@H](O)[C@H]7O[C@@H]7O[C@H](CO)[C@@H](O)[C@H](O)[C@H]7O)[C@](C)(CO)[C@@H]6CC[C@]54C)[C@@H]3CC2(C)C)O[C@H](C)[C@@H]1OC(=O)/C(C)=C\C [BUNKANKASAPONIN D]
IC50 [1]: 21.8 µM
IC50 (MCF7): 49.4 µM
IC50 (BGC-823): 23.9 µM
IC50 (HeLa): 55.5 µM
IC50 (HT-1080): > 100 µM
IC50 (HepG2): 33.1 µM
IC50 (A549): 31.7 µM
IC50 [2]: 20.4 µM
IC50 (HEp-2): > 100 µM
IC50 (PC-3): 13.2 µM

C/C=C(/C)C(=O)O[C@@H]1[C@@H](O)[C@H](O[C@H]2[C@H](OC(C)=O)[C@]3(CO)[C@H](O)C[C@]4(C)C(=CC[C@@H]5[C@@]6(C)CC[C@H](O[C@@H]7O[C@H](C(=O)O)[C@@H](O)[C@H](O)[C@H]7O[C@@H]7O[C@H](CO)[C@@H](O)[C@H](O)[C@H]7O)C(C)(C)[C@@H]6CC[C@]54C)[C@@H]3CC2(C)C)O[C@H](C)[C@@H]1OC(=O)/C(C)=C\C [BUNKANKASAPONIN F]
IC50 [1]: 3.24 µM
IC50 (MCF7): 4.3 µM
IC50 (BGC-823): 11.3 µM
IC50 (HeLa): 4.97 µM
IC50 (HT-1080): 1.75 µM
IC50 (HepG2): 2.45 µM
IC50 (A549): 5.76 µM
IC50 [2]: 5.22 µM
IC50 (HEp-2): 4.97 µM
IC50 (PC-3): 2.28 µM

O=c1[nH]cc(F)c(=O)[nH]1 [FLUOROURACIL]
IC50 [1]: 31.6 µM
IC50 (MCF7): 24.6 µM
IC50 (BGC-823): 15.7 µM
IC50 (HeLa): 10.4 µM
IC50 (HT-1080): 3.06 µM
IC50 (HepG2): 10.5 µM
IC50 (A549): 31.5 µM
IC50 [2]: 9.92 µM
IC50 (HEp-2): 24.6 µM
IC50 (PC-3): 35.8 µM

CC1(C)C[C@H]2C3=CC[C@@H]4[C@@]5(C)CC[C@H](O[C@@H]6O[C@H](CO[C@@H]7O[C@H](CO)[C@@H](O)[C@H](O)[C@H]7O)[C@@H](O)[C@H](O)[C@H]6O)C(C)(C)[C@@H]5CC[C@@]4(C)[C@]3(C)CC[C@@]2(CO[C@@H]2O[C@H](CO[C@@H]3O[C@H](CO)[C@@H](O)[C@H](O)[C@H]3O)[C@@H](O)[C@H](O)[C@H]2O[C@@H]2O[C@H](CO)[C@@H](O)[C@H](O)[C@H]2O)[C@@H](O)[C@@H]1O [SORBIFOLIASIDE A]
IC50 [1]: > 100 µM
IC50 (MCF7): > 100 µM
IC50 (BGC-823): > 100 µM
IC50 (HeLa): > 100 µM
IC50 (HT-1080): > 100 µM
IC50 (HepG2): > 100 µM
IC50 (A549): > 100 µM
IC50 [2]: > 100 µM
IC50 (HEp-2): > 100 µM
IC50 (PC-3): > 100 µM

CC1(C)C[C@H]2C3=CC[C@@H]4[C@@]5(C)CC[C@H](O[C@@H]6O[C@H](CO[C@@H]7O[C@H](CO)[C@@H](O)[C@H](O)[C@H]7O)[C@@H](O)[C@H](O)[C@H]6O)C(C)(C)[C@@H]5CC[C@@]4(C)[C@]3(C)CC(=O)[C@@]2(CO[C@@H]2O[C@H](CO[C@@H]3O[C@H](CO)[C@@H](O)[C@H](O)[C@H]3O)[C@@H](O)[C@H](O)[C@H]2O[C@@H]2O[C@H](CO)[C@@H](O)[C@H](O)[C@H]2O)[C@@H](O)[C@@H]1O [SORBIFOLIASIDE B]
IC50 [1]: > 100 µM
IC50 (MCF7): > 100 µM
IC50 (BGC-823): > 100 µM
IC50 (HeLa): > 100 µM
IC50 (HT-1080): > 100 µM
IC50 (HepG2): > 100 µM
IC50 (A549): > 100 µM
IC50 [2]: > 100 µM
IC50 (HEp-2): > 100 µM
IC50 (PC-3): > 100 µM

CC1(C)C[C@H]2C3=CC[C@@H]4[C@@]5(C)CC[C@H](O[C@@H]6O[C@H](CO[C@@H]7O[C@H](CO)[C@@H](O)[C@H](O)[C@H]7O)[C@@H](O)[C@H](O)[C@H]6O[C@@H]6O[C@H](CO)[C@@H](O)[C@H](O)[C@H]6O)C(C)(C)[C@@H]5CC[C@@]4(C)[C@]3(C)CC(=O)[C@@]2(CO[C@@H]2O[C@H](CO[C@@H]3O[C@H](CO)[C@@H](O)[C@H](O)[C@H]3O)[C@@H](O)[C@H](O)[C@H]2O)[C@@H](O)[C@@H]1O [SORBIFOLIASIDE C]
IC50 [1]: > 100 µM
IC50 (MCF7): > 100 µM
IC50 (BGC-823): > 100 µM
IC50 (HeLa): > 100 µM
IC50 (HT-1080): > 100 µM
IC50 (HepG2): > 100 µM
IC50 (A549): > 100 µM
IC50 [2]: > 100 µM
IC50 (HEp-2): > 100 µM
IC50 (PC-3): > 100 µM

C/C=C(/C)C(=O)O[C@@H]1[C@@H](O)[C@H](O[C@H]2CC[C@]3(C)[C@H]4CC=C5[C@@H]6CC(C)(C)[C@@H](O)[C@H](O)[C@]6(CO[C@@H]6O[C@H](CO[C@@H]7O[C@H](CO)[C@@H](O)[C@H](O)[C@H]7O)[C@@H](O)[C@H](O)[C@H]6O)CC[C@@]5(C)[C@]4(C)CC[C@H]3C2(C)C)O[C@H](CO[C@@H]2O[C@H](CO)[C@@H](O)[C@H](O)[C@H]2O)[C@H]1O [SORBIFOLIASIDE D]
IC50 [1]: > 100 µM
IC50 (MCF7): > 100 µM
IC50 (BGC-823): > 100 µM
IC50 (HeLa): > 100 µM
IC50 (HT-1080): > 100 µM
IC50 (HepG2): > 100 µM
IC50 (A549): > 100 µM
IC50 [2]: > 100 µM
IC50 (HEp-2): > 100 µM
IC50 (PC-3): > 100 µM

C/C=C(/C)C(=O)O[C@@H]1[C@@H](O)[C@H](O[C@H]2CC[C@]3(C)[C@H]4CC=C5[C@@H]6CC(C)(C)[C@@H](O)[C@H](O)[C@]6(CO[C@@H]6O[C@H](CO[C@@H]7O[C@H](CO)[C@@H](O)[C@H](O)[C@H]7O)[C@@H](O)[C@H](O)[C@H]6O)C(=O)C[C@@]5(C)[C@]4(C)CC[C@H]3C2(C)C)O[C@H](CO[C@@H]2O[C@H](CO)[C@@H](O)[C@H](O)[C@H]2O)[C@H]1O [SORBIFOLIASIDE E]
IC50 [1]: > 100 µM
IC50 (MCF7): > 100 µM
IC50 (BGC-823): > 100 µM
IC50 (HeLa): > 100 µM
IC50 (HT-1080): > 100 µM
IC50 (HepG2): > 100 µM
IC50 (A549): > 100 µM
IC50 [2]: > 100 µM
IC50 (HEp-2): > 100 µM
IC50 (PC-3): > 100 µM

C/C=C(/C)C(=O)O[C@@H]1[C@@H](O)[C@H](O[C@H]2CC[C@]3(C)[C@H]4CC=C5[C@@H]6CC(C)(C)[C@@H](O)[C@H](O)[C@]6(CO[C@@H]6O[C@H](CO[C@@H]7O[C@H](CO)[C@@H](O)[C@H](O)[C@H]7O)[C@@H](O)[C@H](O)[C@H]6O[C@@H]6O[C@H](CO)[C@@H](O)[C@H](O)[C@H]6O)CC[C@@]5(C)[C@]4(C)CC[C@H]3C2(C)C)O[C@H](CO[C@@H]2O[C@H](CO)[C@@H](O)[C@H](O)[C@H]2O)[C@H]1OC(C)=O [SORBIFOLIASIDE F]
IC50 [1]: > 100 µM
IC50 (MCF7): > 100 µM
IC50 (BGC-823): > 100 µM
IC50 (HeLa): > 100 µM
IC50 (HT-1080): > 100 µM
IC50 (HepG2): > 100 µM
IC50 (A549): > 100 µM
IC50 [2]: > 100 µM
IC50 (HEp-2): > 100 µM
IC50 (PC-3): > 100 µM

C[C@@H]1O[C@@H](O[C@H]2[C@H](OC[C@@]34CC[C@]5(C)C(=CC[C@@H]6[C@@]7(C)CC[C@H](O[C@@H]8O[C@H](CO[C@@H]9O[C@H](CO)[C@@H](O)[C@H](O)[C@H]9O)[C@@H](O)[C@H](O)[C@H]8O)C(C)(C)[C@@H]7CC[C@]65C)[C@@H]3CC(C)(C)[C@@H](O)[C@@H]4O)O[C@H](CO[C@@H]3O[C@H](CO)[C@@H](O)[C@H](O)[C@H]3O)[C@@H](O)[C@@H]2O)[C@H](O)[C@H](O)[C@H]1O [XANIFOLIA O54]
IC50 [1]: > 100 µM
IC50 (MCF7): > 100 µM
IC50 (BGC-823): > 100 µM
IC50 (HeLa): > 100 µM
IC50 (HT-1080): > 100 µM
IC50 (HepG2): > 100 µM
IC50 (A549): > 100 µM
IC50 [2]: > 100 µM
IC50 (HEp-2): > 100 µM
IC50 (PC-3): > 100 µM

— ChEMBL document CHEMBL2057081, “Triterpenoid saponins from Xanthoceras sorbifolia Bunge and their inhibitory activity on human cancer cell lines” (Bioorg Med Chem Lett, 2012)
